Data published in patent publication US12644133B2, “Methods and compositions to increase somatic cell nuclear transfer (SCNT) efficiency by removing histone H3-lysine trimethylation” (The Children's Medical Center Corporation, priority 2014, dated 2026).

Legend:
SCNT blastocysts = assay: ntESC derivation from SCNT blastocysts; format: cell-based, mouse; conditions: for No. of blastocyst attached to feeder cells / No. of established ntESC lines / blastocyst attached to feeder cells (% per blast) / established ntESC lines (% per MII oocyte) / established ntESC lines (% per blast): cumulus donor cells (BDF1, female)
Description: Blastocysts were denuded by acid tyrode treatment and cultured on mitomycin treated MEF feeder cells and in DMEM supplemented with 5% FBS, 10% KnockOut serum replacement (Life Technologies #10828-028), 0.1 mM non-essential amino acids, 2 mM GlutaMAX, 50 U/ml penicillin-streptomycin, 0.1 mM 2-mercaptoethanol and 2000 U leukemia inhibitory factor (LIF, Millipore #ESG1107) at 37° C. 5% CO2. Four to five days later, outgrowths from attached embryos were dissociated with 0.25% trypsin and passaged all onto new feeder cells. On the following day, the medium was replaced with N2B27-LIF media [DMEM/F12 (Life Technologies #10565-042) supplemented with 0.1 mM non-essential amino acids, 2 mM GlutaMAX, 50 U/ml penicillin-streptomycin, 0.1 mM 2-mercaptoethanol, 0.5×N2 supplement (Life technologies #17502-048), 0.5× B27 supplement (Life technologies #17504-044), […] CHIR99021 (STEMGENT #04-0004), 0.5 μM PD0325901 (STEMGENT #04-0006) and 1000 U LIF]. Five days later, expanded cells were reseeded as established ntESC.

[1] = test system: SCNT embryos transferred to pseudopregnant ICR females; assay: In vivo development of 2-cell SCNT embryos after embryo transfer (caesarian section at E19.5); set-up: species or system mouse; conditions: for Body weight at birth (g ± SD) / Placenta weight at birth (g ± SD) / No. of implanted / No. of pups / implanted (% per ET) / pups (% per ET): Kdm4d mRNA 1800 ng/μl
Source text: Two-cell stage embryos generated by SCNT or in vitro fertilization were transferred to the oviducts of pseudopregnant (E0.5) ICR females. The pups were recovered by caesarian section on the day of delivery (E19.5) and nursed by lactating ICR females.

[2] = TSA treatment 15 nM for 8 h, water or mRNA 1800 ng/μl injected
[3] = Sertoli donor cells (BDF1, male)
[4] = Sertoli donor cells (BDF1, male), E19.5
[5] = Sertoli donor cells (BDF1, male), E19.5, listed as Kdm4d
[6] = Sertoli donor cells (BDF1, male), E19.5, listed as Kdm4d WT
[7] = cumulus donor cells (BDF1, female)
[8] = cumulus donor cells (BDF1, female), E19.5

## Kdm4d WT mRNA: in vitro transcribed full length mouse Kdm4d mRNA, encoding an H3K9me3-specific histone demethylase
SCNT blastocysts; SCNT blastocysts from cumulus donor cells
  efficiency of attachment or ntESC derivation per blastocyst, compared to control (in words): did not show any significant difference
SCNT blastocysts; cumulus donor cells
  ntESC derivation efficiency based on the total number of MII oocytes used for SCNT (in words): greatly improved
SCNT blastocysts; [2]
  No. of blastocyst attached to feeder cells: 16
  No. of established ntESC lines: 11
  blastocyst attached to feeder cells (% per blast): 76.2%
  established ntESC lines (% per MII oocyte): (44.0) %
  established ntESC lines (% per blast): (52.3) %
SCNT blastocysts; no TSA, mRNA 1800 ng/μl
  No. of blastocyst attached to feeder cells: 13
  No. of established ntESC lines: 10
  blastocyst attached to feeder cells (% per blast): 72.2%
  established ntESC lines (% per MII oocyte): (50.0) %
  established ntESC lines (% per blast): (55.6) %
[1]; [3]
  Body weight at birth (g ± SD): 1.48 ± 0.11 g
  Placenta weight at birth (g ± SD): 0.26 ± 0.10 g
[1]; [4]
  No. of implanted: 59
  No. of pups: 8
[1]; [5]
  implanted (% per ET): 64%
  pups (% per ET): 8.7%
[1]; [6]
  implanted (% per ET): 64.1%
  pups (% per ET): (8.7) %
[1]; [7]
  Body weight at birth (g ± SD): 1.60 ± 0.15 g
  Placenta weight at birth (g ± SD): 0.32 ± 0.03 g
[1]; [8]
  No. of implanted: 75
  No. of pups: 9
  implanted (% per ET): 63.0%
[1]; cumulus donor cells (BDF1, female), E19.5, listed as Kdm4d
  pups (% per ET): 7.6%
[1]; cumulus donor cells (BDF1, female), E19.5, listed as Kdm4d WT
  pups (% per ET): (7.6) %
[1]; cumulus donor cells, E19.5
  rate of implantation relative to control SCNT embryos: 3 fold
[1]; mouse, in vivo
  growth and fertility of SCNT pups (in words): grew normally to adulthood and generated offspring by natural mating
